Test results taken from ChEMBL document CHEMBL3853337, “Synthesis and P1' SAR exploration of potent macrocyclic tissue factor-factor VIIa inhibitors” (Bioorg Med Chem Lett, 2016).
pKi: −log10 of the molar value.

What was measured:
Prothrombin = Prothrombin (Homo sapiens, UniProt P00734); experiment: Inhibition of thrombin (unknown origin) at 25 degC by chromogenic substrate assay
Kallikrein-1 = Kallikrein-1 (Homo sapiens, UniProt P06870); experiment: Inhibition of human kallikrein1 at 37 degC by chromogenic substrate assay
[1] = Clearance in iv dosed dog; assay type: ADME, organism-based, Canis lupus familiaris; conditions: in vivo
[2] = Permeability of the compound at pH 5.5 by PAMPA assay; assay type: ADME; conditions: read-out: permeability
[3] = Permeability of the compound at pH 7.4 by PAMPA assay; assay type: ADME; conditions: read-out: permeability
[4] = Fraction unbound in human plasma; assay type: ADME, cell-free
[5] = biological target: T1, Coagulation factor VII/tissue factor (Homo sapiens, UniProt P08709); experiment: Inhibition of recombinant human TF-factor 7a using factor 10 as substrate at 37 degC; assay type: protein-complex assay
Coagulation factor X = Coagulation factor X (Homo sapiens, UniProt P00742); experiment: Inhibition of factor 10a (unknown origin) at 25 degC by chromogenic substrate assay
[6] = biological target: Vitamin K-dependent protein C (Homo sapiens, UniProt P04070); experiment: Inhibition of activated protein C (unknown origin) at 37 degC by chromogenic substrate assay
[7] = Inhibition of trypsin (unknown origin) at 25 degC by chromogenic substrate assay; parameters: species or system Homo sapiens
[8] = Anticlotting activity in human factor 7 immunodepleted plasma mixed with normal pooled plasma from different species assessed compound causing 2 times increase in prothrombin time after 3 mins relative to baseline control; assay type: functional
[9] = Half-life in human liver microsomes; assay type: ADME
[10] = Permeability from apical to basolateral side in human Caco2 cells; assay type: ADME, cell-based; conditions: Caco-2, read-out: permeability
[11] = Clearance in po or iv dosed Beagle dog by LC-MS/MS analysis; assay type: ADME, organism-based, Canis lupus familiaris; conditions: in vivo
[12] = Half life in Beagle dog liver microsomes at 3 uM by LC-MS/MS analysis; assay type: ADME, Canis lupus familiaris
[13] = Permeability from basolateral to apical side in human Caco2 cells; assay type: ADME, cell-based; conditions: Caco-2, read-out: permeability
[14] = biological target: T1, Coagulation factor VII/tissue factor; experiment: Inhibition of human TF-factor 7a ([…] residues) using factor 10 as substrate after 60 mins; assay type: protein-complex assay
[15] = Oral bioavailability in Beagle dog; assay type: ADME, organism-based, Canis lupus familiaris; conditions: in vivo
[16] = Oral bioavailability in iv dosed dog; assay type: ADME, organism-based, Canis lupus familiaris; conditions: in vivo
Homo sapiens [17] = species on record: Homo sapiens; experiment: Selectivity ratio of Ki for thrombin (unknown origin) to Ki for human factor 7a ([…] residues)
Homo sapiens [18] = species on record: Homo sapiens; experiment: Selectivity ratio of Ki for trypsin (unknown origin) to Ki for human factor 7a ([…] residues)
Homo sapiens [19] = species on record: Homo sapiens; experiment: Selectivity ratio of Ki for factor 10a (unknown origin) to Ki for human factor 7a ([…] residues)
Homo sapiens [20] = species on record: Homo sapiens; experiment: Selectivity ratio of Ki for factor 9a (unknown origin) to Ki for human factor 7a ([…] residues)
[21] = Metabolic stability in human liver microsomes assessed as compound remaining after 10 mins; assay type: ADME; conditions: read-out: Stability
Homo sapiens [22] = species on record: Homo sapiens; experiment: Selectivity ratio of Ki for human kallikrein1 to Ki for recombinant human TF-factor 7a

| SMILES | pKi (Prothrombin) | pKi (Kallikrein-1) | clearance [1] [mL/min/kg] | Papp [2] [×10⁻⁶ cm/s] | Papp [3] [×10⁻⁶ cm/s] | fraction unbound [4] | pKi [5] | pKi (Coagulation factor X) | pKi [6] | pKi [7] | EC [8] [µM] | half-life [9] [h] | further results |
| --- | --- | --- | --- | --- | --- | --- | --- | --- | --- | --- | --- | --- | --- |
| Cc1cc2ccc1[C@@H](C)COC(=O)Nc1ccc(C3(C(=O)O)CCCC3)c(c1)CN(C)C(=O)[C@@H]2Nc1ccc2c(N)ncc(F)c2c1 | < 4.88 | 5.80 | 54 | 21.1 | 4 | 0.028 | 9.66 | 5.74 | 6.47 | 5.66 | 6.6 |  |  |
| Cc1cc2ccc1[C@@H](C)COC(=O)Nc1ccc(C3(C(=O)O)CCOCC3)c(c1)CN(C)C(=O)[C@@H]2Nc1ccc2c(N)ncc(F)c2c1 | < 4.88 | 5.28 |  | 2.6 | 2.1 | 0.058 | 8.36 | 5.85 | 5.80 | < 5.21 | 11 | > 2 |  |
| Cc1cc2ccc1[C@@H](C)COC(=O)Nc1ccc(C3(C(=O)O)CCC3)c(c1)CN(C)C(=O)[C@@H]2Nc1ccc2c(N)ncc(F)c2c1 | < 4.88 | 5.94 | 56 | 20.9 | 3.4 | 0.033 | 9.85 | 6.07 | 6.14 | 5.47 | 7.9 | > 2 |  |
| Cc1cc2ccc1[C@@H](C)COC(=O)Nc1ccc(C3CC3)c(c1)CN(C)C(=O)[C@@H]2Nc1ccc2c(N)nccc2c1 |  |  |  |  |  |  |  |  |  |  |  |  | Papp A→B [10]: < 1.5 ×10⁻⁶ cm/s; clearance [11]: 2.2 mL/min/kg; half-life at 3 µM [12]: 3.33 h; Papp B→A [13]: 9.3 ×10⁻⁶ cm/s; pKi [14]: 8.70; bioavailability [15]: 12% |
| Cc1cc2ccc1[C@@H](C)COC(=O)Nc1ccc(C3(c4nnn[nH]4)CC3)c(c1)CN(C)C(=O)[C@@H]2Nc1ccc2c(N)ncc(F)c2c1 | < 4.88 | 6.02 | 7 | 11.9 | 4.8 | 0.018 | 9.14 | 5.98 | 6.76 | 5.31 | 10 | 1.9 | bioavailability [16]: 2% |
| Cc1cc2ccc1[C@@H](C)COC(=O)Nc1ccc(C3(C(=O)O)CCCCC3)c(c1)CN(C)C(=O)[C@@H]2Nc1ccc2c(N)ncc(F)c2c1 | < 4.88 | 5.92 |  | 80.5 | 8 | 0.017 | 10.22 | 6.05 | 6.81 | 6.30 | 18 | 1.57 |  |
| CCS(=O)(=O)c1ccc2cc1CNC(=O)[C@H](Nc1ccc3c(N)nccc3c1)c1ccc(c(C)c1)CCOC(=O)N2 |  |  |  |  |  |  |  |  |  |  | 1.2 |  | Ratio Ki (Homo sapiens [17]): > 500; Ratio Ki (Homo sapiens [18]): > 500; Ratio Ki (Homo sapiens [19]): > 500; Ratio Ki (Homo sapiens [20]): > 500 |
| Cc1cc2ccc1[C@@H](C)COC(=O)Nc1ccc(C3(C(=O)O)CC3)c(c1)CN(C)C(=O)[C@@H]2Nc1ccc2c(N)ncc(F)c2c1 | < 4.88 |  |  | 33.7 | 11.7 | 0.044 |  | 5.18 | 7.15 | 5.56 | 4.7 |  | remaining at 10 min [21]: 100% |
| Cc1cc2ccc1[C@@H](C)COC(=O)Nc1ccc(S(=O)(=O)C3CC3)c(c1)CN(C)C(=O)[C@@H]2Nc1ccc2c(N)nccc2c1 |  |  |  |  |  |  |  |  |  |  | 1.1 |  | clearance [11]: 29 mL/min/kg; half-life at 3 µM [12]: 1.77 h; bioavailability [15]: 1% |
| Cc1cc2ccc1[C@@H](C)COC(=O)Nc1ccc(C3CC3)c(c1)CN(C)C(=O)[C@@H]2Nc1ccc2c(N)ncc(F)c2c1 | 4.74 | 7.82 |  |  |  |  | 7.74 | 5.52 | 6.66 | < 5.21 | 32 | 0.383 | Ratio Ki (Homo sapiens [22]): 0.8 |
